Source: paper PMC4335020, “Single Oral Dose Pharmacokinetics of Decursin and Decursinol Angelate in Healthy Adult Men and Women” (PLoS ONE, 2015)
Read-outs that look alike come from different tables or passages of the source.

Test: Single oral dose human plasma pharmacokinetics of D, DA and DOH after Cogni.Q
Format: in vivo
Conditions: for Cmax / Tmax / half-life / AUC(0-t): plasma
Text: Ten healthy male and 10 female subjects were recruited by public announcement in Amarillo, TX, from January 2013 to April 2013 (see Fig. 1 CONSORT diagram). The sample size for each gender was chosen without power calculation due to the lack of prior knowledge of PK parameter variance in humans. After receiving informed consent verbally and in writing, the health status of each candidate was confirmed by health questionnaire, plasma biochemistry (hepatic and renal functions), complete blood cell count (CBC), and a physical examination by a participating academic physician. Subjects with diabetes, or pregnant, perinatal and breastfeeding women were excluded. For the 48 hours preceding study visit until the final blood draw, all subjects were instructed to avoid taking any prescription or nonprescription drugs, vitamins, and herbal/dietary supplements. Each subject was compensated for participating in the study per TTUHSC IRB approved rate.
Eligible subjects arrived at our clinical facility at 0700 (7:00 am) on the test day after a fast beginning at 2200 (10:00 pm) the previous night. After a brief review of vital signs, the nurse placed an intravenous (IV) line with saline drip in one arm of each subject. A baseline pre-dose (hour 0) blood sample was drawn through the IV line; after that subjects swallowed four Cogni.Q vegicaps with 240 mL of water at hour 0 under direct supervision. Subjects stayed at the clinical facility in their room for the next 12 hours, returning at 24 and 48 hours. Blood was drawn at baseline (hour 0) and at 0.5, 1, 2, 3, 4, 6, 8, 12, 24 and 48 hours after dosing into Vacutainer Blood Collection Tube (Becton-Dickinson, Franklin Lakes, NJ. Product Number: 367874, Sodium heparin was used as anti-coagulant). Water was allowed as desired except for within the first hour after Cogni.Q consumption. All subjects received standardized meals at post-dose hours 4.5 and 9.5 but no food was allowed for at least the first 4 hours post-dose.
Plasma was prepared by centrifuging the heparinized blood at 1000 g for 15 minutes at room temperature. Urine samples (40mL) were collected within time spans of 0–4, 4–8, 8–12 and 12–24 hours (total volume of urine was recorded). All plasma and urine samples were put on dry ice immediately and then stored at -80°C freezer until analysis.
Plasma samples were extracted with a validated solid supported liquid extraction (SLE) method facilitated with a positive pressure manifold (Biotage, Charlotte, NC). Briefly, 100 μL of plasma sample was spiked with 5 μL of 10 ng/μL prednisolone (IS), diluted with 200 μL of LC-MS grade water, mixed and loaded onto ISOLUTE SLE+ 400 μL Array Well cartridges (Biotage, Charlotte, NC). A pulse of minimum positive pressure was applied to facilitate the samples absorption into the cartridges. After the samples were allowed to absorb for 5 min, the compounds were eluted with 2×500 μL tert-butyl methyl ether. The eluent was dried in a Speedvac and the resulting residue was reconstituted in 50 μL of methanol for UHPLC-MS/MS analysis.
Eight-point calibration curves were constructed for D, DA and DOH, at concentrations of 0.1, 0.5, 1, 5, 10, 20, 50 and 100 μg/L for D and DA, and at concentrations of 1, 5, 10, 50, 100, 200, 500 and 1000 μg/L for DOH, respectively. The linear range was 0.1–100 μg/L (0.3–300 nmol/L), 0.1–100 μg/L (0.3–300 nmol/L) and 1–1000 μg/L (4–4000 nmol/L) for D, DA and DOH, respectively. The inter- and intra-assay CV were lower than 6.5% and the accuracy was between 90–105%. Calibration curve was run for each batch of samples analyzed. The mean calibration curve correlation coefficient (r) for D, DA and DOH was 0.999, 0.999 and 0.998, respectively (data from 7–10 calibration curves). In addition, 70% of the plasma samples were extracted and analyzed twice, the data from two replicate analyses were nearly identical and combined for final data analyses and presentation. […]

**Q.** Which Cmax (all human subjects n = 20, single oral dose 4 Cogni.Q vegicaps (119 mg D, 77 mg DA), read-out: Cmax, nmol/L Mean (SD)) does the source give for `C/C=C(/C)C(=O)O[C@H]1Cc2cc3ccc(=O)oc3cc2OC1(C)C` [DA, decursinol angelate] here?
**A.** Its Cmax is 48.1 nmol/L.

**Q.** And the “variation in C max and AUC0–48h among individual subjects” value (all subjects)?
**A.** The value was ≤ 60 fold.

**Q.** What about the Cmax (both sexes, human, oral, 4 Cogni.Q vegicaps, n=20 (S1 Table), read-out: Cmax, nM, Grand Mean) of the same compound?
**A.** Its Cmax is 48.1 nmol/L.

**Q.** What about the Tmax (both sexes, human, oral, 4 Cogni.Q vegicaps, n=20 (S1 Table), read-out: Tmax, h, Grand Mean) of the same compound?
**A.** Its Tmax is 2.4 h.

**Q.** What about the half-life (both sexes, human, oral, all subjects, outliers excluded (S1 Table), read-out: Terminal t1/2, h, Grand Mean (converted)) of the same compound?
**A.** Its half-life is 19.3 h.

**Q.** And the AUC(0-t) (both sexes, human, oral, n=20 (S1 Table), read-out: AUC0-48h, Grand Mean)?
**A.** Its AUC(0-t) is 335 nmol·h/L.

**Q.** And the Cmax (both sexes, human, po, all human subjects n = 20, single oral dose 4 Cogni.Q vegicaps (119 mg D, 77 mg DA), read-out: Cmax, nmol/L Mean (SD))?
**A.** Its Cmax is 48 nmol/L.

**Q.** What about the Tmax (both sexes, human, po, all human subjects n = 20, single oral dose 4 Cogni.Q vegicaps (119 mg D, 77 mg DA), read-out: Tmax, h, Mean (SD)) of the same compound?
**A.** Its Tmax is 2.4 h.

**Q.** What about the AUC(0-t) (both sexes, human, po, all human subjects n = 20, single oral dose Cogni.Q, plasma (Table 2), read-out: AUC0–48h, nmol/L, Mean (SD)) of the same compound?
**A.** The AUC(0-t) was 335 nmol·h/L.

**Q.** And the half-life (both sexes, human, po, all human subjects, four outlier subjects excluded, single oral dose Cogni.Q, read-out: Terminal t1/2, h, Mean (SD) (converted))?
**A.** Its half-life is 19.3 h.

**Q.** What about the AUC(0-t) (both sexes, human, po, twenty healthy subjects, single oral dose Cogni.Q, plasma (abstract), read-out: mean area under the curve (AUC0-48h)) of the same compound?
**A.** The AUC(0-t) was 335 nmol·h/L.

**Q.** And the AUC(0-t) (female, human, oral, 4 Cogni.Q vegicaps, Women n=10 (S1 Table), read-out: AUC0-48h, Mean, F)?
**A.** The AUC(0-t) was 344 nmol·h/L.

**Q.** And the Cmax (female, human, oral, 4 Cogni.Q vegicaps, Women n=10 (S1 Table), read-out: Cmax, nM, Mean, F)?
**A.** Its Cmax is 43.9 nmol/L.

**Q.** What about the Tmax (female, human, oral, Women n=10 (S1 Table), read-out: Tmax, h, Mean, F) of the same compound?
**A.** Its Tmax is 2.7 h.

**Q.** And the half-life (female, human, oral, Women, outliers excluded (S1 Table), read-out: Terminal t1/2, h, Mean, F (converted))?
**A.** The half-life was 23.7 h.

**Q.** What about the AUC(0-t) (female, human, po, Women N = 10, single oral dose Cogni.Q, read-out: AUC0–48h, h.nmol/L Mean (SD)) of the same compound?
**A.** The AUC(0-t) was 344 nmol·h/L.

**Q.** And the Cmax (female, human, po, Women N = 10, single oral dose Cogni.Q, read-out: Cmax, nmol/L, Mean (SD))?
**A.** Its Cmax is 43.9 nmol/L.

**Q.** And the Tmax (female, human, po, Women N = 10, single oral dose Cogni.Q, read-out: Tmax, h, Mean (SD))?
**A.** Its Tmax is 2.7 h.

**Q.** And the half-life (female, human, po, Women, outlier subjects excluded, single oral dose Cogni.Q, read-out: T1/2, h, terminal Mean (SD) (converted))?
**A.** Its half-life is 23.7 h.

**Q.** What about the half-life (human, oral, 4 Cogni.Q vegicaps, subject S1 (115 lb), outlier, excluded from means, read-out: Terminal t1/2, h (converted)) of the same compound?
**A.** Its half-life is 20.2 h.

**Q.** What about the AUC(0-t) (human, oral, 4 Cogni.Q vegicaps, subject S1 (115 lb), read-out: AUC0-48h) of the same compound?
**A.** The AUC(0-t) was 190 nmol·h/L.

**Q.** And the Cmax (human, oral, 4 Cogni.Q vegicaps, subject S1 (115 lb), read-out: Cmax)?
**A.** The Cmax was 23.4 nmol/L.

**Q.** What about the Tmax (human, oral, 4 Cogni.Q vegicaps, subject S1 (115 lb), read-out: Tmax) of the same compound?
**A.** Its Tmax is 2 h.

**Q.** And the AUC(0-t) (human, oral, 4 Cogni.Q vegicaps, subject S2 (194 lb), read-out: AUC0-48h)?
**A.** Its AUC(0-t) is 97.5 nmol·h/L.

**Q.** What about the Cmax (human, oral, 4 Cogni.Q vegicaps, subject S2 (194 lb), read-out: Cmax) of the same compound?
**A.** The Cmax was 13.4 nmol/L.

**Q.** And the half-life (human, oral, 4 Cogni.Q vegicaps, subject S2 (194 lb), read-out: Terminal t1/2, h (converted))?
**A.** Its half-life is 38.6 h.

**Q.** What about the Tmax (human, oral, 4 Cogni.Q vegicaps, subject S2 (194 lb), read-out: Tmax) of the same compound?
**A.** The Tmax was 3 h.

**Q.** What about the half-life (human, oral, 4 Cogni.Q vegicaps, subject S3 (170 lb), outlier, excluded from means, read-out: Terminal t1/2, h (converted)) of the same compound?
**A.** Its half-life is 31.4 h.

**Q.** What about the AUC(0-t) (human, oral, 4 Cogni.Q vegicaps, subject S3 (170 lb), read-out: AUC0-48h) of the same compound?
**A.** Its AUC(0-t) is 142 nmol·h/L.

**Q.** And the Cmax (human, oral, 4 Cogni.Q vegicaps, subject S3 (170 lb), read-out: Cmax)?
**A.** The Cmax was 27.2 nmol/L.

**Q.** What about the Tmax (human, oral, 4 Cogni.Q vegicaps, subject S3 (170 lb), read-out: Tmax) of the same compound?
**A.** The Tmax was 6 h.

**Q.** And the AUC(0-t) (human, oral, 4 Cogni.Q vegicaps, subject S4 (170 lb), read-out: AUC0-48h)?
**A.** The AUC(0-t) was 1060 nmol·h/L.

**Q.** What about the Cmax (human, oral, 4 Cogni.Q vegicaps, subject S4 (170 lb), read-out: Cmax) of the same compound?
**A.** Its Cmax is 100 nmol/L.

**Q.** What about the half-life (human, oral, 4 Cogni.Q vegicaps, subject S4 (170 lb), read-out: Terminal t1/2, h (converted)) of the same compound?
**A.** Its half-life is 17.7 h.

**Q.** And the Tmax (human, oral, 4 Cogni.Q vegicaps, subject S4 (170 lb), read-out: Tmax)?
**A.** Its Tmax is 2 h.

**Q.** What about the AUC(0-t) (human, oral, 4 Cogni.Q vegicaps, subject S5 (161 lb), read-out: AUC0-48h) of the same compound?
**A.** Its AUC(0-t) is 294 nmol·h/L.

**Q.** What about the Cmax (human, oral, 4 Cogni.Q vegicaps, subject S5 (161 lb), read-out: Cmax) of the same compound?
**A.** The Cmax was 21.4 nmol/L.

**Q.** What about the half-life (human, oral, 4 Cogni.Q vegicaps, subject S5 (161 lb), read-out: Terminal t1/2, h (converted)) of the same compound?
**A.** Its half-life is 12 h.

**Q.** What about the Tmax (human, oral, 4 Cogni.Q vegicaps, subject S5 (161 lb), read-out: Tmax) of the same compound?
**A.** Its Tmax is 1 h.

**Q.** What about the AUC(0-t) (human, oral, 4 Cogni.Q vegicaps, subject S6 (120 lb), read-out: AUC0-48h) of the same compound?
**A.** Its AUC(0-t) is 696 nmol·h/L.

**Q.** What about the Cmax (human, oral, 4 Cogni.Q vegicaps, subject S6 (120 lb), read-out: Cmax) of the same compound?
**A.** The Cmax was 84.3 nmol/L.

**Q.** And the half-life (human, oral, 4 Cogni.Q vegicaps, subject S6 (120 lb), read-out: Terminal t1/2, h (converted))?
**A.** The half-life was 16.2 h.

**Q.** What about the Tmax (human, oral, 4 Cogni.Q vegicaps, subject S6 (120 lb), read-out: Tmax) of the same compound?
**A.** Its Tmax is 3 h.

**Q.** What about the AUC(0-t) (human, oral, 4 Cogni.Q vegicaps, subject S7 (180 lb), read-out: AUC0-48h) of the same compound?
**A.** Its AUC(0-t) is 432 nmol·h/L.

**Q.** What about the Cmax (human, oral, 4 Cogni.Q vegicaps, subject S7 (180 lb), read-out: Cmax) of the same compound?
**A.** Its Cmax is 74.3 nmol/L.

**Q.** What about the half-life (human, oral, 4 Cogni.Q vegicaps, subject S7 (180 lb), read-out: Terminal t1/2, h (converted)) of the same compound?
**A.** The half-life was 17.4 h.

**Q.** What about the Tmax (human, oral, 4 Cogni.Q vegicaps, subject S7 (180 lb), read-out: Tmax) of the same compound?
**A.** The Tmax was 4 h.

**Q.** And the AUC(0-t) (human, oral, 4 Cogni.Q vegicaps, subject S8 (160 lb), read-out: AUC0-48h)?
**A.** The AUC(0-t) was 1600 nmol·h/L.

**Q.** And the Cmax (human, oral, 4 Cogni.Q vegicaps, subject S8 (160 lb), read-out: Cmax)?
**A.** The Cmax was 183 nmol/L.

**Q.** What about the half-life (human, oral, 4 Cogni.Q vegicaps, subject S8 (160 lb), read-out: Terminal t1/2, h (converted)) of the same compound?
**A.** Its half-life is 16.7 h.

**Q.** And the Tmax (human, oral, 4 Cogni.Q vegicaps, subject S8 (160 lb), read-out: Tmax)?
**A.** The Tmax was 3 h.

**Q.** And the AUC(0-t) (human, oral, 4 Cogni.Q vegicaps, subject S9 (158 lb), read-out: AUC0-48h)?
**A.** The AUC(0-t) was 80.8 nmol·h/L.

**Q.** What about the Cmax (human, oral, 4 Cogni.Q vegicaps, subject S9 (158 lb), read-out: Cmax) of the same compound?
**A.** Its Cmax is 13.6 nmol/L.

**Q.** What about the half-life (human, oral, 4 Cogni.Q vegicaps, subject S9 (158 lb), read-out: Terminal t1/2, h (converted)) of the same compound?
**A.** The half-life was 19.1 h.
